According to US20260053811A1, “METHODS OF TREATING HYPERTENSION IN OBESE SUBJECTS” (Mineralys Therapeutics, Inc., priority 2022, published 2026):

Tested on: hypertensive subjects
Test: Adverse events (TEAEs, SAEs, AESI, study drug discontinuation, dose modification);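 further: counts of spontaneously reported adverse events in the Safety Analysis Set, subjects grouped by treatment actually received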
Type: in vivo, human
Description: In analyses performed on the Safety Analysis Set, subjects will be analyzed according to their actual treatment received.

CC(=O)N[C@H]1CC[C@H](NC(=O)CN2CCN(c3nncc(-c4ccc(C)cc4)n3)CC2)CC1 [Compound A HBr]
2 (9.1) n (%): On-treatment TEAE: Cortisol decreased (Part 1, 12.5 mg BID (N = 22)) | On-treatment TEAE: Cortisol decreased, Mild (Part 1, 12.5 mg BID (N = 22)) | On-treatment TEAE: General disorders and administration site conditions (Part 1, 12.5 mg BID (N = 22)) | On-treatment TEAE: Vascular disorders (Part 1, 12.5 mg BID (N = 22)) | On-treatment TEAE: Vascular disorders, Mild (Part 1, 12.5 mg BID (N = 22))
2 (8.7) n (%): On-treatment TEAE: Cardiac disorders (Part 1, 12.5 mg QD (N = 23)) | On-treatment TEAE: Gastrointestinal disorders (Part 1, 12.5 mg QD (N = 23)) | On-treatment TEAE: Hypertension (Part 1, 12.5 mg QD (N = 23))
1 (1.7%): Dose titration: Hyponatremia, subjects n (%) (100mg QD Pooled (N 60)) | Study drug discontinuation: Hyponatremia, subjects n (%) (100mg QD Pooled (N 60)) | Study drug discontinuation: Other possibly related, subjects n (%) (100mg QD Pooled (N 60))
4 (6.7%): Study drug discontinuation: Other unrelated, subjects n (%) (100mg QD Pooled (N 60))
6 (27.3) n (%): On-treatment TEAE: Investigations (Part 1, 12.5 mg BID (N = 22))
2 (3.3%): Dose titration: Hyperkalemia, subjects n (%) (100mg QD Pooled (N 60)) | Study drug discontinuation: Hyperkalemia, subjects n (%) (100mg QD Pooled (N 60)) | Study drug discontinuation: Hypotension, subjects n (%) (100mg QD Pooled (N 60))
6 (26.1) n (%): On-treatment TEAE: Hyperkalaemia (Part 1, 12.5 mg QD (N = 23))
24: Subjects with TEAE resulting in dose modification (Part 1)
0: Dose titration: Other possibly related, subjects n (%) (100mg QD Pooled (N 60)) | Dose titration: Other unrelated, subjects n (%) (100mg QD Pooled (N 60)) | Dose titration: Hyponatremia, subjects n (%) (Part 1 100mg QD (N 29)) | Dose titration: Other possibly related, subjects n (%) (Part 1 100mg QD (N 29)) | Dose titration: Other unrelated, subjects n (%) (Part 1 100mg QD (N 29)) | Study drug discontinuation: Hyponatremia, subjects n (%) (Part 1 100mg QD (N 29))
8 (36.4) n (%): On-treatment TEAE: any, Mild (Part 1, 12.5 mg BID (N = 22))
0 n (%): On-treatment TEAE: Blood and lymphatic system disorders (Part 1, 12.5 mg BID (N = 22)) | On-treatment TEAE: Blood and lymphatic system disorders, Mild (Part 1, 12.5 mg BID (N = 22)) | On-treatment TEAE: Blood creatinine increased (Part 1, 12.5 mg BID (N = 22)) | On-treatment TEAE: Blood creatinine increased, Mild (Part 1, 12.5 mg BID (N = 22)) | On-treatment TEAE: Dizziness (Part 1, 12.5 mg BID (N = 22)) | On-treatment TEAE: Gastrointestinal disorders (Part 1, 12.5 mg BID (N = 22)) | On-treatment TEAE: Gastrointestinal disorders, Mild (Part 1, 12.5 mg BID (N = 22)) | On-treatment TEAE: Headache (Part 1, 12.5 mg BID (N = 22)) | On-treatment TEAE: Headache, Mild (Part 1, 12.5 mg BID (N = 22)) | On-treatment TEAE: Hyperkalaemia, Severe (Part 1, 12.5 mg BID (N = 22)) | On-treatment TEAE: Hypertension (Part 1, 12.5 mg BID (N = 22)) | On-treatment TEAE: Hypertension, Moderate (Part 1, 12.5 mg BID (N = 22)) | On-treatment TEAE: Infections and infestations, Mild (Part 1, 12.5 mg BID (N = 22)) | On-treatment TEAE: Urinary tract infection (Part 1, 12.5 mg BID (N = 22)) | On-treatment TEAE: Urinary tract infection, Mild (Part 1, 12.5 mg BID (N = 22)) | On-treatment TEAE: Vascular disorders, Moderate (Part 1, 12.5 mg BID (N = 22)) | On-treatment TEAE: any, Severe (Part 1, 12.5 mg BID (N = 22)) | TEAE leading to permanent discontinuation from study drug: Activated partial thromboplastin time prolonged (Part 1, 12.5 mg BID (N = 22)) | TEAE leading to permanent discontinuation from study drug: Cardiac disorders (Part 1, 12.5 mg BID (N = 22)) | TEAE leading to permanent discontinuation from study drug: Coronary artery disease (Part 1, 12.5 mg BID (N = 22)) | TEAE leading to permanent discontinuation from study drug: Dizziness (Part 1, 12.5 mg BID (N = 22)) | TEAE leading to permanent discontinuation from study drug: Hyperkalaemia (Part 1, 12.5 mg BID (N = 22)) | TEAE leading to permanent discontinuation from study drug: Hypertension (Part 1, 12.5 mg BID (N = 22)) | TEAE leading to permanent discontinuation from study drug: Hypotension (Part 1, 12.5 mg BID (N = 22)) | TEAE leading to permanent discontinuation from study drug: Investigations (Part 1, 12.5 mg BID (N = 22)) | TEAE leading to permanent discontinuation from study drug: Metabolism and nutrition disorders (Part 1, 12.5 mg BID (N = 22)) | TEAE leading to permanent discontinuation from study drug: Nervous system disorders (Part 1, 12.5 mg BID (N = 22)) | On-treatment TEAE: Blood and lymphatic system disorders (Part 1, 12.5 mg QD (N = 23)) | On-treatment TEAE: Blood and lymphatic system disorders, Mild (Part 1, 12.5 mg QD (N = 23)) | On-treatment TEAE: Blood creatinine increased (Part 1, 12.5 mg QD (N = 23)) | On-treatment TEAE: Blood creatinine increased, Mild (Part 1, 12.5 mg QD (N = 23)) | On-treatment TEAE: Cortisol decreased (Part 1, 12.5 mg QD (N = 23)) | On-treatment TEAE: Cortisol decreased, Mild (Part 1, 12.5 mg QD (N = 23)) | On-treatment TEAE: General disorders and administration site conditions, Mild (Part 1, 12.5 mg QD (N = 23)) | On-treatment TEAE: Headache (Part 1, 12.5 mg QD (N = 23)) | On-treatment TEAE: Headache, Mild (Part 1, 12.5 mg QD (N = 23))
3 (6.0%): Study drug discontinuation: Other unrelated, subjects n (%) (Part 1 100mg QD (N 29))
1 (4.5) n (%): On-treatment TEAE: Cardiac disorders (Part 1, 12.5 mg BID (N = 22)) | On-treatment TEAE: General disorders and administration site conditions, Mild (Part 1, 12.5 mg BID (N = 22)) | On-treatment TEAE: Hyperkalaemia, Moderate (Part 1, 12.5 mg BID (N = 22)) | On-treatment TEAE: Infections and infestations (Part 1, 12.5 mg BID (N = 22)) | On-treatment TEAE: Infections and infestations, Moderate (Part 1, 12.5 mg BID (N = 22)) | On-treatment TEAE: Investigations, Moderate (Part 1, 12.5 mg BID (N = 22)) | On-treatment TEAE: Metabolism and nutrition disorders, Moderate (Part 1, 12.5 mg BID (N = 22)) | On-treatment TEAE: Nervous system disorders (Part 1, 12.5 mg BID (N = 22)) | On-treatment TEAE: Nervous system disorders, Mild (Part 1, 12.5 mg BID (N = 22)) | On-treatment TEAE: Orthostatic hypotension (Part 1, 12.5 mg BID (N = 22)) | On-treatment TEAE: Orthostatic hypotension, Mild (Part 1, 12.5 mg BID (N = 22)) | On-treatment TEAE: Psychiatric disorders (Part 1, 12.5 mg BID (N = 22)) | On-treatment TEAE: Psychiatric disorders, Moderate (Part 1, 12.5 mg BID (N = 22)) | Subjects with any On-treatment TEAEs leading to withdrawal from study drug (Part 1, 12.5 mg BID (N = 22)) | TEAE leading to permanent discontinuation from study drug: Orthostatic hypotension (Part 1, 12.5 mg BID (N = 22)) | TEAE leading to permanent discontinuation from study drug: Vascular disorders (Part 1, 12.5 mg BID (N = 22))
4 (18.2) n (%): On-treatment TEAE: Hyperkalaemia, Mild (Part 1, 12.5 mg BID (N = 22)) | On-treatment TEAE: Metabolism and nutrition disorders, Mild (Part 1, 12.5 mg BID (N = 22))
3 (13.0) n (%): On-treatment TEAE: Infections and infestations (Part 1, 12.5 mg QD (N = 23)) | On-treatment TEAE: Infections and infestations, Mild (Part 1, 12.5 mg QD (N = 23))
3 (13.6) n (%): On-treatment TEAE: Glomerular filtration rate decreased (Part 1, 12.5 mg BID (N = 22)) | On-treatment TEAE: Glomerular filtration rate decreased, Mild (Part 1, 12.5 mg BID (N = 22))
4 (17.4) n (%): On-treatment TEAE: Hyperkalaemia, Mild (Part 1, 12.5 mg QD (N = 23))
1 (4.3) n (%): On-treatment TEAE: Dizziness (Part 1, 12.5 mg QD (N = 23)) | On-treatment TEAE: Gastrointestinal disorders, Mild (Part 1, 12.5 mg QD (N = 23)) | On-treatment TEAE: General disorders and administration site conditions (Part 1, 12.5 mg QD (N = 23)) | On-treatment TEAE: Glomerular filtration rate decreased (Part 1, 12.5 mg QD (N = 23)) | On-treatment TEAE: Glomerular filtration rate decreased, Mild (Part 1, 12.5 mg QD (N = 23)) | On-treatment TEAE: Hyperkalaemia, Moderate (Part 1, 12.5 mg QD (N = 23)) | On-treatment TEAE: Hyperkalaemia, Severe (Part 1, 12.5 mg QD (N = 23)) | On-treatment TEAE: Hypertension, Moderate (Part 1, 12.5 mg QD (N = 23))
5 (22.7) n (%): On-treatment TEAE: Hyperkalaemia (Part 1, 12.5 mg BID (N = 22)) | On-treatment TEAE: Investigations, Mild (Part 1, 12.5 mg BID (N = 22)) | On-treatment TEAE: Metabolism and nutrition disorders (Part 1, 12.5 mg BID (N = 22)) | On-treatment TEAE: any, Moderate (Part 1, 12.5 mg BID (N = 22))
1 (3.4%): Dose titration: Hyperkalemia, subjects n (%) (Part 1 100mg QD (N 29)) | Study drug discontinuation: Hypotension, subjects n (%) (Part 1 100mg QD (N 29)) | Study drug discontinuation: Other possibly related, subjects n (%) (Part 1 100mg QD (N 29))
2 (6.9%): Study drug discontinuation: Hyperkalemia, subjects n (%) (Part 1 100mg QD (N 29))
